The test system of series [1] is human 201T lung adenocarcinoma cells (orthotopic xenografts). Briefly: orthotopic 201T xenografts in nude mice, mediastinal block weight. The settings on record: 60 mg/kg at days 2, 4, 6, 8, 10, 12, sacrifice day 56. Format: in vivo, NCr athymic nude mice. The procedure:
Pathogen-free 4 to 6 week-old male NCr athymic nude mice (Taconic, Germantown, N.Y.) were housed in sterilized, filter-topped cages kept in laminar flow isolators (Forma Scientific, Marietta, Ohio), and fed autoclaved food and water ad libitum. Four animals were housed in each cage. Mice were acclimated to the vivarium for one week prior to their use in study protocols. All procedures involving the mice were performed under sterile conditions in a laminar flow hood (Forma Scientific). All studies were approved by the institutional animal care and use committee.
Human PC-3 prostate cancer cells (2×10^6 cells; American Type Culture Collection CRL-1435) were inoculated subcutanteously into the flanks of nude mice in 0.1 ml HBSS (Hank's balanced salt solution) (Life Technologies). For implantation of orthotopic 201T cells, animals were fully anesthetized in a Harvard small animal anesthesia chamber using nebulized Metafane (Pitman Moore, Inc., Washington Crossing, N.J.). […] The needle was advanced through the chest wall into the lung tissue, and the tumor cell inoculum of 2×10^6 cells was then dispersed in a final volume of 0.1 ml HBSS/Matrigel (1:1 ratio). […] For tumors implanted subcutaneously, tumors were measured in a blind fashion with dial calipers, and the volume was calculated using the formula ½*π(W*L*H). […]

Series [2] is described as follows: visual observation of side effects in treated mice. The settings on record: mice treated at any dose. In kind it is in vivo, NCr athymic nude mice.
The next series has as its system PC-3 cells. Nature of the series: in vitro cell growth assay, [3H]thymidine incorporation, PC-3. In kind it is cell-based, human. The method, then: The human prostatic carcinoma cell line PC-3 was grown in RPMI 1640 (Life Technologies, Grand Island, […].) supplemented with 10% fetal bovine serum (“FBS”, Life Technologies). The human cell line 201T was established from a poorly differentiated lung adenocarcinoma, as previously described using the method of J. M. Siegfried et al., “Secretion of autocrine growth factors by cultured lung tumors: effects on neoplastic lung epithelial cells,” Lung Cancer, vol. 4, pp. 205–209 (1988). See also J. P. Hamide et al., “Percutaneous implantation of non-small cell lung carcinoma: technique and observations,” Academ. Radiolo., vol. 4, pp. 629–633 (1997). The cell line was grown in a medium conditioned for 48 hours by the cell line A549 (ATCC CCL-185) containing 1% FBS (HyClone Laboratories, Logan, Utah) as previously described in J. M. Siegfried, “Culture of primary lung tumors using medium conditioned by a lung carcinoma cell line,” J. Cell. Biochem., vol. 41, pp. 91–95 (1988). This medium is referred to as CM+1% FBS.
PC-3 cells were exposed to 0, 0.1, 1, 2.5, 5, and 10 μM BN-50730 in RPMI medium supplemented with 10% FBS and [^3H]thymidine (Amersham Life Science, Arlington Heights, Ill.). […] PC-3 and 201T cells were also exposed to 10 μM BN-50730 for 24, 48, 72 and 144 hours, and cell growth assessed as above. […]
(Dividing cells build labelled thymidine or BrdU into new DNA.)

In the next series the test system is bFGF. Nature of the series: Western blot analysis of cell lysates for bFGF. In kind it is cell-based, human. The conditions noted are these: 5 μM, 18 hr prior to cell harvest. The method, then: HUVEC, PC-3, and 201T cells were grown to 75% confluency in the appropriate growth media. BN-50730 (5 μM) or vehicle (DMSO) was added to each cell line 18 hr prior to cell harvest. Cells were washed three times in phosphate-buffered saline (“PBS”) and scraped into Lemely buffer which lacked bromophenol blue and β-mercaptoethanol (0.1 M NaCl, 0.01M Tris-HCl (pH 7.6), 0.001 M EDTA, 1 μg/ml aprotinin, 100 μg/ml phenylmethylsulfonyl flouride, 2% SDS, and 10% glycerol). The cell suspension was boiled for 10 min and then immediately stored at −20° C. Protein levels were quantified using a Bio-Rad Protein Assay (Bio-Rad, Hercules, Calif.). Protein samples (20 μg) were separated through a 10–20% denaturing gradient acrylamide gel in Tris-glycine buffer and transferred to nitrocellulose (Bio-Rad) by electrophoretic blotting. […] Primary antibody was detected using alkaline phosphatase-conjugated goat anti-mouse IgG (Bio-Rad).
The methods were as in Example 1. Lysates were analyzed from HUVEC cells grown in the presence of DMSO (Lane 1) or 5 μM BN-50730 (Lane 2); PC-3 cells grown in the presence of DMSO (Lane 3) or 5 μM BN-50730 (Lane 4); and 201T cells grown in the presence of DMSO (Lane 5) or 5 μM BN-50730 (Lane 6). […]

Take `COc1ccc(NC(=O)N2CCc3c(sc4c3C(c3ccccc3Cl)=NCc3nnc(C)n3-4)C2)cc1` [BN-50730, tetrahydro-4,7,8,10 methyl-1 (chloro-2 phenyl)-6 (methoxy-4 phenyl-carbomoyl)-9 pyrido [4′,3′-4,5] thieno [3,2-f] triazolo-1,2,4[4,3-α]diazepine-1,4]: in series [1] (p=0.011, Student's t-test), the “mediastinal block weight, placebo-treated vs LAU-8080-treated” value was “significantly larger in placebo-treated animals”. In addition, the “mediastinal weight vs control litter mates without tumor cell implantation” value in series [1] (p=0.800, Student's t-test) is “the same as for control liter mates”. The “side effects, visual observations” value in series [2] is listed as “no apparent side effects”. Further, the “PC-3 cell proliferation, time course” value in the series on PC-3 cells (10 μM at 1, 2, 3 or 6 days, p=0.556, F-test) was “no effect”. Also, in the series on PC-3 cells (0.01, 0.1, 1, 2.5, 5, 10 μM for 4 days, p=0.529 for 10 μM), the “PC-3 cell proliferation, concentration response” value was “not affected”. Also, in the series with bFGF, the “production of bFGF by 201T and PC-3 cells” value is recorded as “does not inhibit the production of bFGF”.

The values above are taken from patent US6979682B2, “Platelet-activating factor antagonist inhibition of angiogenesis and tumor growth induced by basic fibroblast” (Board of Supervisors of Louisiana State University and …, priority 2001, dated 2005).
